Results published in patent EP4620959A1, “CYCLIC COMPOUNDS USED AS MULTI-TARGET KINASE INHIBITORS AND PREPARATION METHOD THEREFOR” (Shanghai Institute of Organic Chemistry, Chinese Academy of …, priority 2022, dated 2024).
Each block holds one compound with its values, some of them ahead of it.

Columns and labels:
LRRK2 G2019S = LRRK2 G2019S (Homo sapiens, UniProt Q5S007, G2019S); assay: Kinase activity inhibition assay (ADP-Glo), LRRK2 G2019S; type: biochemical; details: for inhibition at 0.1 µM: read-out: LRRK2 G2019S inhibition rate at 100 nM, ATP 100 µM, compound at 100 nM
LRRK2 G2019S, sequence (Q5S007 whole entry G2019S): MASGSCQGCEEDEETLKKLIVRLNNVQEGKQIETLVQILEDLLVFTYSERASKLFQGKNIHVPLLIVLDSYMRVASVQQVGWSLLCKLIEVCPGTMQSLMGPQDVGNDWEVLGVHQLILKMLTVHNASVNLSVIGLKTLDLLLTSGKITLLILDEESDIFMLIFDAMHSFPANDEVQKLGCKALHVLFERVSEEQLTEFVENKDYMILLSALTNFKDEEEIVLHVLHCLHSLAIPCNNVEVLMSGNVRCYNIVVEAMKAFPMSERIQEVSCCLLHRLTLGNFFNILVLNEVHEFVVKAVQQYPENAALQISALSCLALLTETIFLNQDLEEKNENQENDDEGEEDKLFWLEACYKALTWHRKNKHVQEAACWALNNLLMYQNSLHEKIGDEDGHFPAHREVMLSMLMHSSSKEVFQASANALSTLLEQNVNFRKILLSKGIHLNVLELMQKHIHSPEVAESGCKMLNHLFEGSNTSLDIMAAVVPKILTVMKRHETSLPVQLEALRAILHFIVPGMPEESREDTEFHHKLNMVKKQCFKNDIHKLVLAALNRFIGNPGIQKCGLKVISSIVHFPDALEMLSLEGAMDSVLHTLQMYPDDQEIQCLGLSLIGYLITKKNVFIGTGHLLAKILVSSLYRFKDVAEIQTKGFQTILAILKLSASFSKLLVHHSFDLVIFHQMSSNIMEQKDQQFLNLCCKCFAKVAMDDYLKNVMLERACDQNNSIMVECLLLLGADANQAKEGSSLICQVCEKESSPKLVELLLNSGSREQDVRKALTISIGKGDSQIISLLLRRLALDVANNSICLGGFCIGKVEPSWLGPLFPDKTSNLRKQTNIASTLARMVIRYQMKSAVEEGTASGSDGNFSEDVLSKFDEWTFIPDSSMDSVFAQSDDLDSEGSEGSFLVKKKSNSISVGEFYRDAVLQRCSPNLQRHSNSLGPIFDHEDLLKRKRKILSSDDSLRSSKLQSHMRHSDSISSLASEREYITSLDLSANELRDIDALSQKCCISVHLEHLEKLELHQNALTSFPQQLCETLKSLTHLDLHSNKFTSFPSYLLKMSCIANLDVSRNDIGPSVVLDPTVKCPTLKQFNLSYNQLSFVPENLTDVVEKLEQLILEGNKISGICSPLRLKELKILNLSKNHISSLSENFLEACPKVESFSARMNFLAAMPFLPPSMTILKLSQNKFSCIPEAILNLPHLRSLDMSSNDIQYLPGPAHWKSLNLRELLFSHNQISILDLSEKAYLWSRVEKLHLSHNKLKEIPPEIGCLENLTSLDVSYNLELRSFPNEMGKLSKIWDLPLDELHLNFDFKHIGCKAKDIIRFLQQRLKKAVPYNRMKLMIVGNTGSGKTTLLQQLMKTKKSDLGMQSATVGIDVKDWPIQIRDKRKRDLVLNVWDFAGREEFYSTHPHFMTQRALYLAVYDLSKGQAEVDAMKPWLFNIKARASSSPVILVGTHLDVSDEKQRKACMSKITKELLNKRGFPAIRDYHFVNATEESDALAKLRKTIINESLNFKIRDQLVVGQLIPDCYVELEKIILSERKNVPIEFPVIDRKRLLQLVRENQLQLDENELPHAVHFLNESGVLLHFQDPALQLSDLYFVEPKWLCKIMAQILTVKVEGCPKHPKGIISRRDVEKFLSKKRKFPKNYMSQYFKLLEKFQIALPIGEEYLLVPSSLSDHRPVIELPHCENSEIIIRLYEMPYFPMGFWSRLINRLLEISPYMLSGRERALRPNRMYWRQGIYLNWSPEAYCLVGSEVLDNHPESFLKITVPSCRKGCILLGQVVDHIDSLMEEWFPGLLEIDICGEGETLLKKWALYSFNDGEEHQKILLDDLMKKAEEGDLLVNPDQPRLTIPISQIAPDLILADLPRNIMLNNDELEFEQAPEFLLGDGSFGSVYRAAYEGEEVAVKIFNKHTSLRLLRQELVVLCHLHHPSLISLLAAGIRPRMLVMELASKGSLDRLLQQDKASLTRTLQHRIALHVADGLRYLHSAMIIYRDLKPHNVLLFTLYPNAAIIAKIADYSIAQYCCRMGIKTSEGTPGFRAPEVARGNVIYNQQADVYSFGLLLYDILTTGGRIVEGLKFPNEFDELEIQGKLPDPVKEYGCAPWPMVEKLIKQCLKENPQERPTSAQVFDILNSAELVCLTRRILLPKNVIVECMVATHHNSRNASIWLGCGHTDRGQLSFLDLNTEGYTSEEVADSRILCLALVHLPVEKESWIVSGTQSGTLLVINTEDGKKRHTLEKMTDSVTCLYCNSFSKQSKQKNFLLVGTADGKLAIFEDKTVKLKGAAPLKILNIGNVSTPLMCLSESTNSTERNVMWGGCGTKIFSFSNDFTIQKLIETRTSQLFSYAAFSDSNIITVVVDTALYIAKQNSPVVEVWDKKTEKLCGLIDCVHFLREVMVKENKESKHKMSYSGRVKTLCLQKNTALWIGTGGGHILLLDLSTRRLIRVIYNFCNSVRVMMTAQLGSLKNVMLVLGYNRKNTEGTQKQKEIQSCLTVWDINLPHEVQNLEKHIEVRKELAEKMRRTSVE
Experimental: (§1) The kinase activity inhibition assay was performed by ICE Bioscience (Beijing) using ADP-Glo and HTRF methods.
(§2) Table 1.1-1 ADP-Glo Buffer
(§3) Table 1.2-1 ADP-Glo Kinase and Substrate Formulation
(§4) SD is the standard error, and AVE is the average value. Table 2-1 LRRK2 Activity Inhibition Test Results

LRRK2 wt = LRRK2 wt (Homo sapiens, UniProt Q5S007); assay: Kinase activity inhibition assay (ADP-Glo), LRRK2 wt; type: biochemical; details: for inhibition at 0.1 µM: read-out: LRRK2 wt inhibition rate at 100 nM, ATP 20 µM, compound at 100 nM
LRRK2 wt, sequence (Q5S007 whole entry): as the sequence (Q5S007 whole entry G2019S) above, with S2019G counted along it
Experimental: as §1, §2, §3, §4

KDR = KDR (Homo sapiens, UniProt P35968); assay: Kinase activity inhibition assay (HTRF), KDR; type: biochemical; details: ATP 4 µM
KDR, sequence (P35968 20-1356): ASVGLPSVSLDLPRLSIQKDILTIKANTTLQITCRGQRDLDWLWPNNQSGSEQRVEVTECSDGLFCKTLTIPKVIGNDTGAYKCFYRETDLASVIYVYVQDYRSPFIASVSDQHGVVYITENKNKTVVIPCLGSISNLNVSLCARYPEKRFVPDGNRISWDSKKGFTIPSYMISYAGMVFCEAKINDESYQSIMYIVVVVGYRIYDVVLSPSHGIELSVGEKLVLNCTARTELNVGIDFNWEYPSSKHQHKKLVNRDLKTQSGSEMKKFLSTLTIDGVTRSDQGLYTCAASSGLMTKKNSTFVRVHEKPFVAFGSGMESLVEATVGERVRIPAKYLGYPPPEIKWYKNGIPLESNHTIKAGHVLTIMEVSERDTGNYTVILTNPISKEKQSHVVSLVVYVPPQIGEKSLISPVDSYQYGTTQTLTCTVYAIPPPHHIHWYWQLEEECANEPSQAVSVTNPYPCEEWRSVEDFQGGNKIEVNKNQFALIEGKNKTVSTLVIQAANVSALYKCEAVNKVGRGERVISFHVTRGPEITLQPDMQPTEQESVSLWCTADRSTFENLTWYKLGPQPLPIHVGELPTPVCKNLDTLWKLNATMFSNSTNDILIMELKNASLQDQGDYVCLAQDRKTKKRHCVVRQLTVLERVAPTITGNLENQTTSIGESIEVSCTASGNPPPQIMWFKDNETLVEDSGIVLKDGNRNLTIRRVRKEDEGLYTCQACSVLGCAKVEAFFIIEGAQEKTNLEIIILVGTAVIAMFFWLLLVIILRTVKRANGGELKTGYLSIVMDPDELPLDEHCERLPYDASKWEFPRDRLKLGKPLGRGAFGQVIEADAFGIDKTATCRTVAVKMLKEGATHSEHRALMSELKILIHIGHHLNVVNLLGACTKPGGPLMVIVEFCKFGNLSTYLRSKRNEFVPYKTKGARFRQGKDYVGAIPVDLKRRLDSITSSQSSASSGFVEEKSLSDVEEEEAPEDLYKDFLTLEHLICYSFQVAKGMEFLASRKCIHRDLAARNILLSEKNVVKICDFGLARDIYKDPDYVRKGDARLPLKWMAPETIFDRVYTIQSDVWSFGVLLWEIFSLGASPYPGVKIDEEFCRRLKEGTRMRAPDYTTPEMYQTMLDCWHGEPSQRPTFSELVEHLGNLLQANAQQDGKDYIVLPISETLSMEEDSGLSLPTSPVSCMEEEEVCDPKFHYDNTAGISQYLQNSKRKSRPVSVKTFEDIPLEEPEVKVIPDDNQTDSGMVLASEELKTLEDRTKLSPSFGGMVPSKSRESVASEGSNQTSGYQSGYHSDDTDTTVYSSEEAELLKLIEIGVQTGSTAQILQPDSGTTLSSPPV
Experimental: as §1
(§5) Table 1.2-2 HTRF Kinase and Substrate Formulation
as §4

FGFR2 V564F = FGFR2 V564F (Homo sapiens, UniProt P21802, V564F); assay: Kinase activity inhibition assay (HTRF), FGFR2 V564F; type: biochemical; details: ATP 15 µM
Experimental: as §1, §5
(§6) • 1) 2×ATP/substrate solution and 2×kinase/metal ion solution were prepared using kinase reaction buffer; • 2) 20 nL (ADP-GLo) or 40 nL (HTRF) of compound dilution was transferred using Echo 655 onto a 384-well assay plate; after centrifugation, 2 µL of 2×kinase and metal ion solution were added to the 384-well assay plate, centrifuged at 1000 rpm for 1 min, and incubated at 25°C for 10 min; • 3) 2 µL of 2×substrate and ATP solution were added to the 384-well assay plate, centrifuged at 1000 rpm for 1 min, and incubated at 25°C for 60 min. • 4) 4 µL of ADP-Glo was transferred to the 384-well assay plate, entrifuged at 1000 rpm for 1 min, and incubated at 25°C for 40 min. • 5) 8 µL of detection solution was transferred to the 384-well assay plate, centrifuged at 1000 rpm for 1 min, and incubated at 25°C for 40 min. • 6) Luminescence signals was read using a multifunctional microplate reader.
as §4

FLT3 = FLT3 (Homo sapiens, UniProt P36888); assay: Kinase activity inhibition assay (HTRF), FLT3; type: biochemical; details: ATP 2 µM
Experimental: as §1, §5, §6, §4

TYRO3 = TYRO3 (Homo sapiens, UniProt Q06418); assay: Kinase activity inhibition assay (HTRF), TYRO3; type: biochemical; details: ATP 0.5 µM
Experimental: as §1, §5, §4

FGFR4 V550M = FGFR4 V550M (Homo sapiens, UniProt P22455, V550M); assay: Kinase activity inhibition assay (HTRF), FGFR4 V550M; type: biochemical; details: ATP 60 µM
Experimental: as §1, §5, §4

RET V804L = RET V804L (Homo sapiens, UniProt P07949, V804L); assay: Kinase activity inhibition assay (HTRF), RET V804L; type: biochemical; details: ATP 5 µM
Experimental: as §1, §5, §6, §4

FGFR2 N549H = FGFR2 N549H (Homo sapiens, UniProt P21802, N549H); assay: Kinase activity inhibition assay (HTRF), FGFR2 N549H; type: biochemical; details: ATP 9 µM
Experimental: as §1, §5, §4

FGFR1 = FGFR1 (Homo sapiens, UniProt P11362); assay: Kinase activity inhibition assay (HTRF), FGFR1; type: biochemical; details: ATP 40 µM
Experimental: as §1, §5, §6, §4

FLT4 = FLT4 (Homo sapiens, UniProt P35916); assay: Kinase activity inhibition assay (HTRF), FLT4; type: biochemical; details: ATP 32 µM
Experimental: as §1, §5, §6, §4

FGFR4 V550L = FGFR4 V550L (Homo sapiens, UniProt P22455, V550L); assay: Kinase activity inhibition assay (ADP-Glo), FGFR4 V550L; type: biochemical; details: ATP 20 µM
Experimental: as §1, §2, §3, §4

FGFR2 = FGFR2 (Homo sapiens, UniProt P21802); assay: Kinase activity inhibition assay (HTRF), FGFR2; type: biochemical; details: ATP 20 µM
Experimental: as §1, §5, §6, §4

[1] = Oral pharmacokinetic study in rats; details: rat, in vivo, 5 mg/kg, male SD rats, oral gavage, dose 5mpk, 1% MC
Experimental: Drug preparation: 1% MC was added to the compound, ground, and shaken uniformly. Samples were collected at 5 min, 15 min, 30 min, 1 h, 2 h, 4 h, and 8 h post-dose, followed by analysis using liquid chromatography-tandem mass spectrometry (LC-MS/MS). Table 3 PK Data of Selected Compounds

FGFR4 N535K = FGFR4 N535K (Homo sapiens, UniProt P22455, N535K); assay: Kinase activity inhibition assay (HTRF), FGFR4 N535K; type: biochemical; details: ATP 100 µM
Experimental: as §1, §5, §6, §4

PDGFRα = PDGFRα (Homo sapiens, UniProt P16234); assay: Kinase activity inhibition assay (HTRF), PDGFRα; type: biochemical; details: ATP 0.5 µM
PDGFRα, sequence (P16234 24-1089): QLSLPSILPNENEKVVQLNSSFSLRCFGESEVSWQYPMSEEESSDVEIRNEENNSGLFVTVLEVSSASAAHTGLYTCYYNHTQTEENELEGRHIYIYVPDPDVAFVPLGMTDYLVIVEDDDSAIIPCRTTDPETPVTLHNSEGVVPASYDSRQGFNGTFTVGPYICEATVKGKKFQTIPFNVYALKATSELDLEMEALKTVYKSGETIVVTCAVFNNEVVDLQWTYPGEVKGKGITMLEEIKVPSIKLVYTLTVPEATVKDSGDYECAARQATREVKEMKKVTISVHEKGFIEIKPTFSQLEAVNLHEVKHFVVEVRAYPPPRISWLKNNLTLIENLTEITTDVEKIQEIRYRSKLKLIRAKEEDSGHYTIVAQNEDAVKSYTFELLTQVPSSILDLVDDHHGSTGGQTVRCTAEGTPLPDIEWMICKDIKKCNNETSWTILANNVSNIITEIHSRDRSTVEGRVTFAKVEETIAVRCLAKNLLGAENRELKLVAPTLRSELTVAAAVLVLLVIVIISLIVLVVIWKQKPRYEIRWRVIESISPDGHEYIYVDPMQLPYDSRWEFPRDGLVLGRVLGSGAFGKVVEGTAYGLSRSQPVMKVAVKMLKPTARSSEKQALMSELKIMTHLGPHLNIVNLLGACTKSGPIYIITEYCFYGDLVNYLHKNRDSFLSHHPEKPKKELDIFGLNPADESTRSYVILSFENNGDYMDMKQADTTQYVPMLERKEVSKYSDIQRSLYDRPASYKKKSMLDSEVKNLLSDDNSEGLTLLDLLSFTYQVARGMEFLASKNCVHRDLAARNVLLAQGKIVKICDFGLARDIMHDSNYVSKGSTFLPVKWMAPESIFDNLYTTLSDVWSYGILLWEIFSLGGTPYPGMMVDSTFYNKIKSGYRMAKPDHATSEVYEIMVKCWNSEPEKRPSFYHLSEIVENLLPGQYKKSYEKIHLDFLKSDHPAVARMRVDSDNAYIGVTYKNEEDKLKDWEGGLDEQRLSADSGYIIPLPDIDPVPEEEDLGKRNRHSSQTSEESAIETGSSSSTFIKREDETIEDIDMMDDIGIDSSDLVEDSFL
Experimental: as §1, §5, §6, §4

FGFR3 V555L = FGFR3 V555L (Homo sapiens, UniProt P22607, V555L); assay: Kinase activity inhibition assay (HTRF), FGFR3 V555L; type: biochemical; details: ATP 20 µM
Experimental: as §1, §5, §6, §4

DYRK2 = DYRK2 (Homo sapiens, UniProt Q92630); assay: Kinase activity inhibition assay (ADP-Glo), DYRK2; type: biochemical; details: ATP 5 µM
Experimental: as §1, §2, §3, §4

FLT1 = FLT1 (Homo sapiens, UniProt P17948); assay: Kinase activity inhibition assay (ADP-Glo), FLT1; type: biochemical; details: ATP 50 µM
Experimental: as §1, §2, §3, §6, §4

FGFR3 V555M = FGFR3 V555M (Homo sapiens, UniProt P22607, V555M); assay: Kinase activity inhibition assay (HTRF), FGFR3 V555M; type: biochemical; details: ATP 20 µM
Experimental: as §1, §5, §6, §4

FGFR2 V564I = FGFR2 V564I (Homo sapiens, UniProt P21802, V564I); assay: Kinase activity inhibition assay (HTRF), FGFR2 V564I; type: biochemical; details: ATP 20 µM
Experimental: as §1, §5, §6, §4

FGFR4 = FGFR4 (Homo sapiens, UniProt P22455); assay: Kinase activity inhibition assay (HTRF), FGFR4; type: biochemical; details: ATP 50 µM
Experimental: as §1, §5, §6, §4

FGFR3 K650M = FGFR3 K650M (Homo sapiens, UniProt P22607, K650M); assay: Kinase activity inhibition assay (HTRF), FGFR3 K650M; type: biochemical; details: ATP 12 µM
Experimental: as §1, §5, §4

FGFR3 = FGFR3 (Homo sapiens, UniProt P22607); assay: Kinase activity inhibition assay (HTRF), FGFR3; type: biochemical; details: ATP 50 µM
Experimental: as §1, §5, §6, §4

FGFR1 V561M = FGFR1 V561M (Homo sapiens, UniProt P11362, V561M); assay: Kinase activity inhibition assay (HTRF), FGFR1 V561M; type: biochemical; details: ATP 20 µM
Experimental: as §1, §5, §6, §4

- inhibition at 0.1 µM (LRRK2 G2019S): 52%
- inhibition at 0.1 µM (LRRK2 wt): 64%
Compound: Cc1nn2cc1Nc1ncc3c(Cl)nn(c3n1)CCCNC(=O)C2(C)C [Example T-8, (E)-1^3-Chloro-3^3,4,4-trimethyl-1^1H,3^1H-2,6-diaza-1(6,1)pyrazolo[3,4-d]pyrimidine-3(4,1)-pyrazolacyclononan-5-one]

- inhibition at 0.3 µM (LRRK2 G2019S; read-out: LRRK2 G2019S inhibition rate @300 nM, ATP 100 µM, compound at 300 nM): 0.34%
- inhibition at 0.1 µM (LRRK2 wt): 5.7%
Compound: Cc1nn2cc1Nc1ncc(C(F)(F)F)c(n1)NCCNC(=O)C2(C)C [Example T-12, (E)-3^3,4,4-Trimethyl-1^5-(trifluoromethyl)-3^1H-2,6,9-triaza-1(2,4)-pyrimidina-3(4,1)-pyrazolacyclononan-5-one]

- inhibition at 0.1 µM (LRRK2 G2019S): 92%
- inhibition at 0.1 µM (LRRK2 wt): 96%
Compound: Cc1nn2cc1Nc1ncc(C(F)(F)F)c(n1)NCCCCNC(=O)C2(C)C [Example T-13, (E)-3^3,4,4-Trimethyl-1^5-(trifluoromethyl)-3^1H-2,6,11-triaza-1(2,4)-pyrimidina-3(4,1)-pyrazolacycloundecan-5-one]

- inhibition at 0.1 µM (LRRK2 G2019S): 84%
- inhibition at 0.1 µM (LRRK2 wt): 87%
Compound: Cc1nn2cc1Nc1ncc(C(F)(F)F)c(n1)NCCCNC(=O)C2 [Example T-14, (E)-3^3-Methyl-1^5-(trifluoromethyl)-3^1H-2,6,10-triaza-1(2,4)-pyrimidina-3(4,1)-pyrazolacyclodecan-5-one]

- inhibition at 0.1 µM (LRRK2 G2019S): -9.6%
- inhibition at 0.3 µM (LRRK2 wt; read-out: LRRK2 wt inhibition rate @300 nM, ATP 20 µM, compound at 300 nM): 5%
Compound: Cc1nn2cc1Nc1ncc(C(F)(F)F)c(n1)NCCNC(=O)C2 [Example T-15, (E)-3^3-Methyl-1^5-(trifluoromethyl)-3^1H-2,6,9-triaza-1(2,4)-pyrimidina-3(4,1)-pyrazolacyclononan-5-one]

- IC50 (KDR): 7.67 nM
- IC50 (FGFR2 V564F): 1.73 nM
- IC50 (FLT3): 88.1 nM
- IC50 (TYRO3): 56.1 nM
- IC50 (FGFR4 V550M): 105 nM
- IC50 (RET V804L): 43.9 nM
- IC50 (FGFR2 N549H): 17.4 nM
- IC50 (FGFR1): 180 nM
- IC50 (FLT4): 19.2 nM
- IC50 (FGFR4 V550L): 208 nM
- IC50 (FGFR2): 31.9 nM
- Cmax [1]: 630 ng/mL
- Tmax [1]: 1 h
- half-life [1]: 1.73 h
- AUC(0-t) at 8 h ([1]; read-out: AUC0-8): 2210 ng·h/mL
- IC50 (FGFR4 N535K): 621 nM
- IC50 (PDGFRα): 67 nM
- IC50 (FGFR3 V555L): 8.81 nM
- IC50 (DYRK2): 27.7 nM
- IC50 (FLT1): 8.83 nM
- IC50 (FGFR3 V555M): 5.07 nM
- IC50 (FGFR2 V564I): 60.2 nM
- IC50 (FGFR4): 58.3 nM
- IC50 (FGFR3 K650M): 14.1 nM
- IC50 (FGFR3): 67.5 nM
- IC50 (FGFR1 V561M): 13.8 nM
Compound: Cc1nn2cc1Nc1ncc3c(Cl)cc(n3n1)CCCNC(=O)C2(C)C [Example T-25, (1^1Z,3^4E)-1^5-Chloro-3^3,4,4-trimethyl-3^1H-2,6-diaza-1(2,7)-pyrrolo[2,1-f][1,2,4]triazine-3(4,1)-pyrazolacyclononan-5-one]

- inhibition at 0.1 µM (LRRK2 wt): 95.1%
Compound: Cc1nn2cc1Nc1ncc(C(F)(F)F)c(n1)NC(C)CCNC(=O)C2(C)C (stereo not shown) [Example T-46, (E)-3^3,4,4,9-Tetramethyl-1^5-(trifluoromethyl)-3^1H-2,6,10-triaza-1(2,4)-pyrimidina-3(4,1)-pyrazolacyclodecan-5-one]
